# Assay results published in US20250136595A1, “ACYLATED HETEROCYCLIC QUINAZOLINE DERIVATIVES AS INHIBITORS OF ERBB2” (Enliven Inc., priority 2022, published 2025).
# Experiments:
# [1] = biological target: T1, phosphorylated EGFR (pEGFR) (Homo sapiens, UniProt P00533); experiment: Detection of phosphorylated EGFR (pEGFR) in EGF-stimulated A431 cells (AlphaLISA); type: cell-based; conditions: A431 cells (10% FBS), 4 hours incubation, EGF 30 ng/mL for 10 minutes
# T1 construct: performed to measure phosphorylated EGFR levels using A431 cells; endogenous in cells; host or cells: A431
# Method: Enzyme-linked immunosorbent assays (ELISA) were performed to measure phosphorylated EGFR levels using A431 cells (10% FBS). A431 (1.0*10^4 cells/40 μl/well) cells were seeded in 384 well. Compounds were dissolved in DMSO, serially diluted in DMSO and then were added, mixed, and incubated for 4 hours at 37° C., 5% CO2. Following the 4-hours incubation, cells were stimulated for 10 minutes with EGF (Invitrogen, cat #PHG0311) at a final concentration of 30 ng/mL in the incubator. The media was aspirated and cells were lysed in 10 μL lysis buffer with protease and phosphatase inhibitors (PerkinElmer, cat #ALSU-PEGFR-A50K). The plates were placed on a shaker for 5 minutes and then incubated for 30 min at 4° C. for complete lysis. The lysate was transferred to an Optiplate (Perkin Elmer, cat #6007290).
# Acceptor mix (PerkinElmer, cat #ALSU-PEGFR-A50K) was prepared just before use and 5 μL was dispensed to all the wells, followed by a 1.5-2 h incubation at room temperature in dark. The donor mix (PerkinElmer, cat #ALSU-PEGFR-A50K) was prepared under low light conditions prior to use and 5 μl of donor mix was added to all the wells under subdued lighting or green filters. The plates were placed on a shaker for 5 min, sealed, and incubated overnight at room temperature in dark. Plates were read on the Envision (PerkinElmer) using standard AlphaLISA settings.
# The percentage of inhibition on EGFR phosphorylation was calculated following equation: % Inhibition=100×(LumHC−LumSample)/(LumHC−LumLC). The low and high controls (LC/HC) are generated from lysate from wells with cells treated with DMSO or […] Staurosporine (BioAustralis, cat #BIA-S1086), […]. IC50 values were calculated by fitting the Curve using XLfit (v5.3.1.3), equation 201: Y=Bottom+ (Top−Bottom)/(1+10^((LogIC50−X)*HillSlope)).
# [2] = biological target: Ba/F3 ERBB2 YVMA (Homo sapiens, UniProt P04626, DUP772-775, cells depend on it); experiment: Cell viability assay (CellTiter Glo) in Ba/F3 cells engineered to express ERBB2 YVMA; type: cell-based, mouse; conditions: Ba/F3 cells expressing human ERBB2 YVMA mutant, 72 hours, % viability, read-out: Ba/F3 ERBB2 YVMA IC50
# Method: Cells were treated with compounds, and cell viability was measured as a metric of kinase inhibition.
# The Ba/F3 cell line is IL-3-dependent mouse cell line derived from the C3H mouse strain. Ba/F3 cell lines were engineered to express human ERBB2 or EGFR kinases, rendering the cells IL-3 independent. The lines were generated via retroviral transduction utilizing a Moloney murine leukemia virus (MMLV) promoter, and constructs are stably integrated into the cell genome. The sequences of the ERBB2 and EGFR genes used were NCBI Reference Sequences NM_004448.3 and NM_005228.3, respectively.
# Similarly, Ba/F3 cell lines engineered to express EGFR, ERBB2, or ERBB2 mutants were grown, harvested, counted and seeded at 3000 cells per well in 96-well plates for the data sets shown in Tables B3-B4. A subset of wells contained media only (low control, “LC”).
# Table B1 provides the growth media and number of cells seeded per well for the each cell line.
# Compounds were dissolved in DMSO and serially diluted. Serially-diluted compound or a DMSO only control (high control, “HC”) was added to the plated cells in each well. […] The final proportion of DMSO never exceeded 0.1%.
# Plates were placed in a 37° C., 5% CO2 incubator for 72 hours. Plates were then removed from the incubator and equilibrated for 15 minutes at room temperature. 40 μl of CellTiter Glo reagent (Promega) was added to measure the relative level of metabolically active cells by quantifying intracellular ATP concentrations. Plates were incubated for 30 minutes at room temperature, and luminescence was measured. Percent viability was normalized to a vehicle control only using the following formula: % viability=100×(Lumsample−LumLC)/(LumHC−LumLC). Graphical curves were fitted using a nonlinear regression model with a sigmoidal dose response.
# [3] = biological target: T2, phosphorylated ERBB2 (pERBB2) (Homo sapiens, UniProt P04626); experiment: Detection of phosphorylated ERBB2 (pERBB2) by ELISA in BT-474 cells; type: cell-based; conditions: four hour incubation with compound
# T2 construct: endogenous in cells; host or cells: BT-474
# Method: BT-474 cells were seeded into a 96-well at 2.0*10^4 cells/100 μl/well. Compounds were dissolved and serially diluted in DMSO. The compounds were then were added, mixed, and incubated for four hours at 37° C., 5% CO2. Compounds were added using four-fold dilutions at final concentrations ranging from 10 μM to 0.01 nM. Following the four hour incubation with compounds, cell lysates were prepared. Plates were centrifuged for 5 min at 3000 RPM, and supernatant was removed from each well. Cells were washed 3 times by resuspension in 150 μl PBS, followed by centrifugation and removal of the supernatant, as above. […] Cells were incubated with lysis buffer for 1 hour at 4° C., and then stored at -80° C. Enzyme-linked immunosorbent assays (ELISA) were performed to measure phosphorylated ERBB2 levels. […] The next day, plates were washed with PBS+0.05% Tween20 (PBST). 150 μl of 5% BSA blocking solution was added for 1 hour at room temperature, with shaking. Plates were washed with PBST. Cell lysates were thawed and 100 μl of lysate was added to the ELISA plate. The plates were incubated for 2 hours at room temperature, with shaking. […] Plates were incubated for 1 hour at room temperature, with shaking. Plates were then washed with PBST, and 100 μl TMB substrate solution (R&D Systems, cat #DY999) was added. Plate were incubated in the dark for 20 minutes at room temperature. 50 μl of Stop solution (R&D Systems, cat #DY994) (50 μl) was added to each well and mixed. Optical density at 450 nm was read on an EnSpire plate reader (Perkin Elmer). The remaining kinase activity by calculated using the following formula: % Relative activity=100×([…]). The low and high control values (“LC” and “HC”) were generated from lysate from wells without cells or with cells treated with 0.1% DMSO, respectively.
# T1 sequence (P00533 25-1210): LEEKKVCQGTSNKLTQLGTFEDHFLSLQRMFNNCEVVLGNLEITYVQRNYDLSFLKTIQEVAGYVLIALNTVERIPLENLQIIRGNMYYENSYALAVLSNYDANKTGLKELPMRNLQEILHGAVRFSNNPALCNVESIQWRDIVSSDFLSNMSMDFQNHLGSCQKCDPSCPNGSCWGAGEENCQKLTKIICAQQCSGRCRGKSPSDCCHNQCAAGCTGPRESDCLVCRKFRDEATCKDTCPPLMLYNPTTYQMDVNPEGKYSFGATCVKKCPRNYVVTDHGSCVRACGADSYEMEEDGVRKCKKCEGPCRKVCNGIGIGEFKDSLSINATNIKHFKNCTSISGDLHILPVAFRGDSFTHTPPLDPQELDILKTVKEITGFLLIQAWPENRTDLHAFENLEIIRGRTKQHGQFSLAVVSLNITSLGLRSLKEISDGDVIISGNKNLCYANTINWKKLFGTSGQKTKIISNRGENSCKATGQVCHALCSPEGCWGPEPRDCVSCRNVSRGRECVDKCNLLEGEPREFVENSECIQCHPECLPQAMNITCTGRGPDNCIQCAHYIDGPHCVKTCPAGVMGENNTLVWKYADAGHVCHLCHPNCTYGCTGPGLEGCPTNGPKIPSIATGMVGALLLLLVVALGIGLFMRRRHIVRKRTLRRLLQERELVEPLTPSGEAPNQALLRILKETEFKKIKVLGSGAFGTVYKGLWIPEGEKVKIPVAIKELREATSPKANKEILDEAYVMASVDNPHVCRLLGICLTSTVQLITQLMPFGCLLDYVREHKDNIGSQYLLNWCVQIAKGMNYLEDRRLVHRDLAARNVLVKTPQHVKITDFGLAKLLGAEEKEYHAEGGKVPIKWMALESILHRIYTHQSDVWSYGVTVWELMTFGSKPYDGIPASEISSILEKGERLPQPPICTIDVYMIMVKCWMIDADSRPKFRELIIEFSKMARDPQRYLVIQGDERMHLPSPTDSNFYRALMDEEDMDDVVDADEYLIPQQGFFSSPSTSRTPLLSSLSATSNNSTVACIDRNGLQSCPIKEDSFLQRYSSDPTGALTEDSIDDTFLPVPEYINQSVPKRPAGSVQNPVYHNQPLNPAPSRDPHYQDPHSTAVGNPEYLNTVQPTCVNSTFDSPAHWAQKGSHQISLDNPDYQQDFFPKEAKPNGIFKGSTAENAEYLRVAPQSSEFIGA
# T2 sequence (P04626 23-1255): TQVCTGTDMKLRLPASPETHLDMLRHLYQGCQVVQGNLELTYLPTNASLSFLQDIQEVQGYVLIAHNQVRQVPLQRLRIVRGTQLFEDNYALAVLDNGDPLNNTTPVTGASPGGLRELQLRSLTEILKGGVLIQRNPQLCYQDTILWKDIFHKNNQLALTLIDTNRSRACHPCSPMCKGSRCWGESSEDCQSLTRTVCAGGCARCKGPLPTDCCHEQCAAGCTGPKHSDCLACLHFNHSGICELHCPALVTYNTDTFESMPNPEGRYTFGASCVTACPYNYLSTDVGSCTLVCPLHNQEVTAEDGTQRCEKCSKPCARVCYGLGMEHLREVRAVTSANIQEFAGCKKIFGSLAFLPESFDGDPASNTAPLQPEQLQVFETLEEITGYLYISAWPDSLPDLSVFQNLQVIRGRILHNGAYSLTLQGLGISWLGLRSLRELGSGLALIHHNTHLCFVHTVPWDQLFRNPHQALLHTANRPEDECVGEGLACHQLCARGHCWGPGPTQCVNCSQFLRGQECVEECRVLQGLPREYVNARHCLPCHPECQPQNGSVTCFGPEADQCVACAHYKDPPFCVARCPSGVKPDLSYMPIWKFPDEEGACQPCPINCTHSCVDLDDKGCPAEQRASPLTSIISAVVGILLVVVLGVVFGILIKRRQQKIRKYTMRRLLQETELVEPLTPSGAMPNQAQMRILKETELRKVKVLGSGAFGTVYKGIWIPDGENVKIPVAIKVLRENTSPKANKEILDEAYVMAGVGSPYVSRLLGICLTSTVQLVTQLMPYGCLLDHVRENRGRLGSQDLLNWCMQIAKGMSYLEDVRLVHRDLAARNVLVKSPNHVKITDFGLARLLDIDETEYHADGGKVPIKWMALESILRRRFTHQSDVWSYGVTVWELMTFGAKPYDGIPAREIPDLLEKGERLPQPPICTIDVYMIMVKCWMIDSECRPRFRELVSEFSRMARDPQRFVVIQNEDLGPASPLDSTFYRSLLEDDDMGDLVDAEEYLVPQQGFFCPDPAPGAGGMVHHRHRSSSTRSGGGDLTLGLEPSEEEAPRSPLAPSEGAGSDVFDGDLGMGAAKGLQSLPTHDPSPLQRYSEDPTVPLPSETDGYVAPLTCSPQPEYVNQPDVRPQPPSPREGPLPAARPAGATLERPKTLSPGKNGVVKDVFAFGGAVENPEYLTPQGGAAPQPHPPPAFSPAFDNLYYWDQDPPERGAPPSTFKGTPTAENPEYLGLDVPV
# Sequence of Ba/F3 ERBB2 YVMA (P04626 with tags, fused parts or gaps DUP772-775): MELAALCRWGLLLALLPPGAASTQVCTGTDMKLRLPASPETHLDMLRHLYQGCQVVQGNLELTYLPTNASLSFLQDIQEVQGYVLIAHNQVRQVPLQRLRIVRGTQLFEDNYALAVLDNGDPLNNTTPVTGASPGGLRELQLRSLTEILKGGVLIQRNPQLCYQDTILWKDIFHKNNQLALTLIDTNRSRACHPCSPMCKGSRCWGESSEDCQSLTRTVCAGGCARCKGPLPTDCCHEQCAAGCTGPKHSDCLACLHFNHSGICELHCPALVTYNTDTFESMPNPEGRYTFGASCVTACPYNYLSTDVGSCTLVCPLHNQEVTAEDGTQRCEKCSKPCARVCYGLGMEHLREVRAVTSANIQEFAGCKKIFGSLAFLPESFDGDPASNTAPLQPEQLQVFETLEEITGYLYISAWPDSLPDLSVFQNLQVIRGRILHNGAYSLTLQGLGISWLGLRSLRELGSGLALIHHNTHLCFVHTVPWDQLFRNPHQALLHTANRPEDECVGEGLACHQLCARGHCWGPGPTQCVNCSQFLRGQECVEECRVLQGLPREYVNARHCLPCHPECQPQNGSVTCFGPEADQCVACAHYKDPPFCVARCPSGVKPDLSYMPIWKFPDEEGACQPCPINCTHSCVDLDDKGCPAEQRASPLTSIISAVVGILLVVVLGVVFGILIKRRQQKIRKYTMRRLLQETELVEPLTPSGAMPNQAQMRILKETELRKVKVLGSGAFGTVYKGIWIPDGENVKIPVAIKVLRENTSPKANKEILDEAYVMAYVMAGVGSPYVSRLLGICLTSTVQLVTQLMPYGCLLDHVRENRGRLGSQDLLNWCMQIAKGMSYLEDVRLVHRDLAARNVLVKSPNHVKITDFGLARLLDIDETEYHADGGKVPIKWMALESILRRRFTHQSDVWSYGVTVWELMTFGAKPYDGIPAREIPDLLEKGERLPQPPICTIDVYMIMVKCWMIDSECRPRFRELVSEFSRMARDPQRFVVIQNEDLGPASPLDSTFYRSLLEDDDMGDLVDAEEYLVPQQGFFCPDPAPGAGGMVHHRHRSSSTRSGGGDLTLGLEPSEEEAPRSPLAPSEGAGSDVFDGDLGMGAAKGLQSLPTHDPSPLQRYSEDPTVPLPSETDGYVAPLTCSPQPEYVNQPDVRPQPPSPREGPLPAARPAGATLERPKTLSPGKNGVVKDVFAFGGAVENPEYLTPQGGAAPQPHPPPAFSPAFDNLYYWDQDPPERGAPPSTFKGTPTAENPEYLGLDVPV
Compound,IC50 [1] [nM],IC50 [3] [nM],GI50 [2] [nM]
"CC#CC(=O)N1CCN(c2ccc3ncnc(Nc4ccc(Oc5ccn6ncnc6c5)c(C)c4)c3n2)[C@H](C)C1 [Compound 24, 1-[(3R)-3-methyl-4-{4-[(3-methyl-4-{[1,2,4]triazolo[1,5-a]pyridin-7-yloxy}phenyl)amino]pyrido[3,2-d]pyrimidin-6-yl}piperazin-1-yl]but-2-yn-1-one]",> 10000,91.4,68.9
"CC#CC(=O)N1CCN(c2ccc3ncnc(Nc4ccc(Oc5ccn6ncnc6c5)c(C)c4)c3n2)[C@@H](C)C1 [Compound 25, 1-[(3S)-3-methyl-4-{4-[(3-methyl-4-{[1,2,4]triazolo[1,5-a]pyridin-7-yloxy}phenyl)amino]pyrido[3,2-d]pyrimidin-6-yl}piperazin-1-yl]but-2-yn-1-one]",> 10000,63.5,23.4
"CC#CC(=O)N1CC2CC(C1)N2c1ccc2ncnc(Nc3ccc(Oc4ccn5ncnc5c4)c(C)c3)c2n1 [Compound 28, 1-(6-{4-[(3-methyl-4-{[1,2,4]triazolo[1,5-a]pyridin-7-yloxy}phenyl)amino]pyrido[3,2-d]pyrimidin-6-yl}-3,6-diazabicyclo[3.1.1]heptan-3-yl)but-2-yn-1-one]",> 10000,444,228
"CC#CC(=O)N1CCN(c2ccc3ncnc(Nc4ccc(Oc5ccc6c(c5)ncn6C)c(C)c4)c3n2)CC1 [Compound 31, 1-{4-[4-({3-methyl-4-[(1-methyl-1,3-benzodiazol-5-yl)oxy]phenyl}amino)pyrido[3,2-d]pyrimidin-6-yl]piperazin-1-yl}but-2-yn-1-one]",7640,29,6.56
"C=CC(=O)N1CCN(c2ccc3ncnc(Nc4ccc(CN5CCn6ncnc6C5)c(C)c4)c3n2)CC1 [Compound 34, 1-(4-{4-[(3-methyl-4-{5H,6H,8H-[1,2,4]triazolo[1,5-a]pyrazin-7-ylmethyl}phenyl)amino]pyrido[3,2-d]pyrimidin-6-yl}piperazin-1-yl)prop-2-en-1-one]",> 10000,68.9,255
"C=CC(=O)N1CC[C@@H](Oc2ccc3ncnc(Nc4ccc(Oc5ccn6ncnc6c5)c(C)c4)c3c2)C1 [Compound 36, (R)-1-(3-((4-((4-([1,2,4]triazolo[1,5-a]pyridin-7-yloxy)-3-methylphenyl)amino)quinazolin-6-yl)oxy)pyrrolidin-1-yl)prop-2-en-1-one]",> 10000,17.8,98.7

# The next molecules have a lower IC50 [1] than those just listed; values first:
IC50 [1] [nM],IC50 [3] [nM],Compound,GI50 [2] [nM]
530,25.2,"CC#CC(=O)N1CCN(c2ccc3ncnc(Nc4ccc(Oc5ccn6ncnc6c5)c(C)c4)c3n2)C[C@H]1C [Compound 23, 1-[(2R)-2-methyl-4-{4-[(3-methyl-4-{[1,2,4]triazolo[1,5-a]pyridin-7-yloxy}phenyl)amino]pyrido[3,2-d]pyrimidin-6-yl}piperazin-1-yl]but-2-yn-1-one]",7.17
2350,35.5,"CC#CC(=O)N1CC2CCC(C1)N2c1ccc2ncnc(Nc3ccc(Oc4ccn5ncnc5c4)c(C)c3)c2n1 [Compound 26, 1-(8-{4-[(3-methyl-4-{[1,2,4]triazolo[1,5-a]pyridin-7-yloxy}phenyl)amino]pyrido[3,2-d]pyrimidin-6-yl}-3,8-diazabicyclo[3.2.1]octan-3-yl)but-2-yn-1-one]",6.16
2800,60.4,"CC#CC(=O)N1C2CCC1CN(c1ccc3ncnc(Nc4ccc(Oc5ccn6ncnc6c5)c(C)c4)c3n1)C2 [Compound 27, 1-(3-{4-[(3-methyl-4-{[1,2,4]triazolo[1,5-a]pyridin-7-yloxy}phenyl)amino]pyrido[3,2-d]pyrimidin-6-yl}-3,8-diazabicyclo[3.2.1]octan-8-yl)but-2-yn-1-one]",27.4
2430,61.4,"CC#CC(=O)N1CC2CC1CN2c1ccc2ncnc(Nc3ccc(Oc4ccn5ncnc5c4)c(C)c3)c2n1 (stereo not drawn) [Compound 30, 1-(5-(4-((4-([1,2,4]triazolo[1,5-a]pyridin-7-yloxy)-3-methylphenyl)amino)pyrido[3,2-d]pyrimidin-6-yl)-2,5-diazabicyclo[2.2.1]heptan-2-yl)but-2-yn-1-one]",21.2
3820,334,"CC#CC(=O)N1CCN(c2ccc3ncnc(Nc4ccc(O[C@@H]5CCCOC5)c(C)c4)c3n2)CC1 [Compound 32, 1-{4-[4-({3-methyl-4-[(3R)-oxan-3-yloxy]phenyl}amino)pyrido[3,2-d]pyrimidin-6-yl]piperazin-1-yl}but-2-yn-1-one]",288
4050,524,"CC#CC(=O)N1CCN(c2ccc3ncnc(Nc4ccc(O[C@H]5CCCOC5)c(C)c4)c3n2)CC1 [Compound 33, 1-{4-[4-({3-methyl-4-[(3S)-oxan-3-yloxy]phenyl}amino)pyrido[3,2-d]pyrimidin-6-yl]piperazin-1-yl}but-2-yn-1-one]",237
823,13.6,"C=CC(=O)N1CCN(c2ccc3ncnc(Nc4ccc(Oc5ccn6ncnc6c5)c(C)c4)c3c2)C[C@H]1C [Compound 35, 1-[(2R)-2-methyl-4-{4-[(3-methyl-4-{[1,2,4]triazolo[1,5-a]pyridin-7-yloxy}phenyl)amino]quinazolin-6-yl}piperazin-1-yl]prop-2-en-1-one]",7.88
2880,33.7,"C=CC(=O)N1CC[C@@H](Oc2ccc3ncnc(Nc4ccc(Oc5ccc6c(c5)ncn6C)c(C)c4)c3c2)C1 [Compound 37, 1-[(3R)-3-{[4-({3-methyl-4-[(1-methyl-1,3-benzodiazol-5-yl)oxy]phenyl}amino)quinazolin-6-yl]oxy}pyrrolidin-1-yl]prop-2-en-1-one]",52.8
462,7.56,"C=CC(=O)N1CC[C@H](Oc2ccc3ncnc(Nc4ccc(Oc5ccc6c(c5)ncn6C)c(C)c4)c3c2)C1 [Compound 38, 1-[(3S)-3-{[4-({3-methyl-4-[(1-methyl-1,3-benzodiazol-5-yl)oxy]phenyl}amino)quinazolin-6-yl]oxy}pyrrolidin-1-yl]prop-2-en-1-one]",7.22
